# Experimental data as given in PubChem BioAssay (NCI).
#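 Values below derive from 48-hour exposures of cells grown in 96-well plates, with endpoints linearly interpolated between the two concentrations bracketing the appropriate inhibition level. Definition used: TGI = concentration required for complete inhibition of growth.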
# Experiments:
# Assay in all cases: NCI tumour cell line growth inhibition, 48 h
# [1] = system: OVCAR-5 ovarian
# [2] = system: SK-MEL-28 melanoma
# [3] = system: P388 leukemia
# [4] = system: P388/ADR leukemia
# [5] = system: OVCAR-4 ovarian
# [6] = system: MCF7 breast
# [7] = system: SK-MEL-5 melanoma
# [8] = system: MALME-3M melanoma
# [9] = system: SN12C renal
# [10] = system: IGROV1 ovarian
# [11] = system: HT29 colon
# [12] = system: CAKI-1 renal
# [13] = system: HOP-92 NSCLC
# [14] = system: XF 498 CNS
# [15] = system: HOP-18 NSCLC
# [16] = system: KM20L2 colon
# [17] = system: SW-620 colon
# [18] = system: NCI-H226 lung
# [19] = system: RPMI-8226 leukemia
# [20] = system: SF-268 CNS
# [21] = system: SK-MEL-2 melanoma
# [22] = system: HCT-116 colon
# [23] = system: OVCAR-3 ovarian
# [24] = system: SF-539 CNS
# [25] = system: M19-MEL melanoma
# [26] = system: DLD-1 colon
# [27] = system: HCT-15 colon
# [28] = system: MOLT-4 leukemia
# [29] = system: DMS 273 small cell lung
# [30] = system: NCI-H23 lung
# [31] = system: SF-295 CNS
# [32] = system: SNB-75 CNS
# [33] = system: COLO 205 colon
# [34] = system: LOX IMVI melanoma
# [35] = system: K-562 leukemia
# [36] = system: UO-31 renal
# [37] = system: NCI/ADR-RES ovarian
# [38] = system: A498 renal
# [39] = system: SK-OV-3 ovarian
# [40] = system: HOP-62 NSCLC
# [41] = system: SNB-19 CNS
# [42] = system: CCRF-CEM leukemia
# [43] = system: RXF 393 renal
# [44] = system: EKVX NSCLC
# [45] = system: UACC-257 melanoma
# [46] = system: SNB-78 CNS
# [47] = system: HL-60(TB) leukemia
# [48] = system: UACC-62 melanoma
# [49] = system: KM12 colon
# [50] = system: U251 CNS
# [51] = system: NCI-H460 lung
# [52] = system: SN12K1 renal
# [53] = system: HCC-2998 colon
# [54] = system: OVCAR-8 ovarian
# [55] = system: A549 NSCLC
# [56] = system: DMS 114 small cell lung
# [57] = system: NCI-H522 lung
# [58] = system: SR leukemia
# [59] = system: PC-3 prostate
# [60] = system: T-47D breast
# [61] = system: DU-145 prostate
# [62] = system: TK-10 renal
# [63] = system: LXFL 529 NSCLC
# [64] = system: MDA-N
# [65] = system: HS 578T breast
# [66] = system: ACHN renal
# [67] = system: MDA-MB-435
# [68] = system: MDA-MB-231 breast
# [69] = system: BT-549 breast
# [70] = system: 786-0 renal
# [71] = system: M14 melanoma
compound,measurement,setting,value
COc1ccccc1Cc1nc(-c2ccccc2)nn(C2OC(COC(C)=O)C(OC(C)=O)C(OC(C)=O)C2OC(C)=O)c1=S (stereo not given),TGI,[1],> 100 µM
same,TGI,[2],> 100 µM
same,TGI,[3],> 100 µM
same,TGI,[4],> 100 µM
same,TGI,[5],8.58 µM
same,TGI,[6],33.9 µM
same,TGI,[7],26.1 µM
same,TGI,[8],72.3 µM
same,TGI,[9],32.2 µM
same,TGI,[10],> 93.9 µM
same,TGI,[11],> 100 µM
same,TGI,[12],32.9 µM
same,TGI,[13],24.4 µM
same,TGI,[14],6.49 µM
same,TGI,[15],97.7 µM
same,TGI,[16],> 100 µM
same,TGI,[17],> 100 µM
same,TGI,[18],> 95.7 µM
same,TGI,[19],80.6 µM
same,TGI,[20],60.4 µM
same,TGI,[21],41.3 µM
same,TGI,[22],> 45.9 µM
same,TGI,[23],> 85.3 µM
same,TGI,[24],33.6 µM
same,TGI,[25],> 100 µM
same,TGI,[26],> 100 µM
same,TGI,[27],84.6 µM
same,TGI,[28],> 100 µM
same,TGI,[29],> 79.6 µM
same,TGI,[30],42.6 µM
same,TGI,[31],> 69.4 µM
same,TGI,[32],15.4 µM
same,TGI,[33],> 86.9 µM
same,TGI,[34],> 100 µM
same,TGI,[35],> 100 µM
same,TGI,[36],> 86 µM
same,TGI,[37],> 100 µM
same,TGI,[38],> 56.2 µM
same,TGI,[39],> 67.2 µM
same,TGI,[40],38.3 µM
same,TGI,[41],> 52.7 µM
same,TGI,[42],> 100 µM
same,TGI,[43],31.9 µM
same,TGI,[44],> 86.4 µM
same,TGI,[45],> 100 µM
same,TGI,[46],> 70.1 µM
same,TGI,[47],> 100 µM
same,TGI,[48],> 80.3 µM
same,TGI,[49],> 100 µM
same,TGI,[50],> 31.6 µM
same,TGI,[51],> 73.5 µM
same,TGI,[52],> 53.4 µM
same,TGI,[53],> 43.2 µM
same,TGI,[54],> 100 µM
same,TGI,[55],> 100 µM
same,TGI,[56],> 100 µM
same,TGI,[57],36.4 µM
COc1c2c(nc3ccccc13)-c1cc3c(c(=O)n1C2)COC(=O)C3(O)CC(=O)N1CCOCC1 (stereo not given),TGI,[1],63.1 µM
same,TGI,[2],> 98.2 µM
same,TGI,[5],> 100 µM
same,TGI,[6],> 44.4 µM
same,TGI,[7],23 µM
same,TGI,[8],> 100 µM
same,TGI,[9],25.4 µM
same,TGI,[10],98.7 µM
same,TGI,[11],68 µM
same,TGI,[12],54 µM
same,TGI,[13],63.4 µM
same,TGI,[14],33.9 µM
same,TGI,[58],17.5 µM
same,TGI,[15],> 79.2 µM
same,TGI,[16],> 100 µM
same,TGI,[17],> 100 µM
same,TGI,[18],22.9 µM
same,TGI,[19],82 µM
same,TGI,[20],26.7 µM
same,TGI,[21],64.6 µM
same,TGI,[59],> 100 µM
same,TGI,[22],38.5 µM
same,TGI,[60],72.3 µM
same,TGI,[61],17.7 µM
same,TGI,[23],55 µM
same,TGI,[24],5.8 µM
same,TGI,[25],44.8 µM
same,TGI,[62],> 100 µM
same,TGI,[26],> 100 µM
same,TGI,[63],> 100 µM
same,TGI,[27],> 100 µM
same,TGI,[64],> 100 µM
same,TGI,[28],5.03 µM
same,TGI,[29],12.4 µM
same,TGI,[30],8.05 µM
same,TGI,[31],31.7 µM
same,TGI,[65],> 88.8 µM
same,TGI,[32],11.6 µM
same,TGI,[33],> 86.5 µM
same,TGI,[66],14.7 µM
same,TGI,[67],76.9 µM
same,TGI,[34],16.5 µM
same,TGI,[35],> 100 µM
same,TGI,[36],68.9 µM
same,TGI,[37],> 48.8 µM
same,TGI,[38],46.4 µM
same,TGI,[39],68.3 µM
same,TGI,[68],> 100 µM
same,TGI,[40],20.7 µM
same,TGI,[41],83.6 µM
same,TGI,[42],3.95 µM
same,TGI,[69],> 53.1 µM
same,TGI,[43],26.9 µM
same,TGI,[44],> 93.6 µM
same,TGI,[45],98.4 µM
same,TGI,[70],12.8 µM
same,TGI,[71],41.4 µM
same,TGI,[46],> 97.1 µM
same,TGI,[47],17.6 µM
same,TGI,[48],8.35 µM
same,TGI,[49],57.5 µM
same,TGI,[50],6.92 µM
same,TGI,[51],30.9 µM
same,TGI,[53],75.8 µM
same,TGI,[54],33.8 µM
same,TGI,[55],> 92.4 µM
same,TGI,[56],24.2 µM
same,TGI,[57],31.4 µM
